In patent US20170204380A1, “GLYCOSYL TRANSFERASES AND THEIR USES” (TECHNISCHE UNIVERSITAT MUNCHEN, priority 2014, published 2017):

Experiments:
[1] = target: T1, VvGT16 (Vitis vinifera, UniProt F6HTJ4); assay: Substrate screening, radiochemical analysis with UDP-[14C]glucose; assay type: biochemical
Protocol: (§1) In the initial screening, each reaction mixture (200 μL in total) contained Tris-HCl buffer (100 mM, pH 8, 10 mM 2-mercaptoethanol), 37 pmol UDP-[^14C]glucose (0.01 μCi, Biotrend, Köln, Germany), substrate (50 μL of a 1 mg/mL stock solution) and purified protein (0.5-0.8 μg/μL). […] The organic phase was mixed with 2 mL Pro Flow P+ cocktail (Meridian Biotechnologies Ltd., Epsom, UK) and radioactivity was determined by liquid scintillation counting (LSC, Tri-Carb 2800TR, Perkin Elmer, Waltham Mass., USA). Additionally, negative controls without substrate were performed.
(§2) The recombinant proteins were expressed with an N-terminal GST-tag, affinity purified and verified by SDS-PAGE and Western Blot using GST-specific antibody.

[2] = target: T2, VvGT15a (Vitis vinifera, UniProt A0ABY9C1E0); assay: as above; assay type: biochemical
Protocol: as §1, §2

[3] = target: VvGT15c (Vitis vinifera, UniProt A0ABY9C1E0); assay: as above; assay type: biochemical
Protocol: as §1, §2

[4] = target: T3, VvGT14a (Vitis vinifera, UniProt F6H0R6); assay: as above; assay type: biochemical
Protocol: as §1, §2

[5] = target: VvGT15b (Vitis vinifera, UniProt A0ABY9C1E0); assay: as above; assay type: biochemical
Protocol: as §1, §2

[6] = target: T2, VvGT15a; assay: Enantioselectivity by chiral phase SPME-GC-MS after hydrolysis of the formed glucoside; assay type: biochemical; details: racemic substrate, prolonged incubation (24 h)
Protocol: (§3) To determine the enantioselectivity of VvGT14 and VvGT15 the enantiomeric ratio of glucosidically bound citronellol and linalool was determined by enantioselective GC-MS. Following the incubation, residual citronellol and linalool were completely removed by extraction with dichloromethane. Chronellyl β-D-glucoside which remained in the aqueous phase was hydrolyzed by HCl (2 mL, 0.1 M, pH 1) for one hour at 100° C. to release citronellol (Skouroumounis and Sefton, 2000). In case of linalyl β-D-glucoside an enzymatic hydrolysis (AR 2000, citric acid buffer pH 4, 24 h) was applied due to the instability of linalool in acid solutions (Williams et al., 1982). […] After hydrolysis, citronellol and linalool were analyzed by SPME-GC-MS as described above.
(§4) GC-MS analysis was performed with a Varian GC-450 coupled to a Varian MS-240 ion-trap employing a Phenomenex Zebron ZB-WAXplus column (30 m×0.25 mm×0.25 μm, Aschaffenburg, Germany). Helium flow rate was 1 mL/min. The analysis was carried out in split mode (liquid injections) or splitless mode (SPME measurements) with 220° C. injector temperature. EI (electron impact ionization)-MS spectra were recorded from m/z 40 to 300 (ionization energy 70 eV; trap temperature 170° C.). The oven temperature program was 60° C. (3 min), 10° C./min up to 250° C. (5 min). In case of SPME measurements, liberated aglycones were isolated for 10 min at 60° C. using a fiber coated with a 85 μm film of polyacrylate (SUPELCO, Bellefonte, USA). After extraction the SPME fiber was desorbed for 10 min at 250° C. in the injection port of the GC-MS system and the column oven program was carried out as described above. Enantioselective GC-MS analysis was performed with a Varian GC-450 coupled to a Varian MS-240 ion-trap. The column was a DiAcB (heptakis-(2,3-di-O-acetyl-6-O-tert.-butyldimethylsilyl)-B-cyclodextrin), 26 m×0.32 mm i.d. with a 0.1 μm film. […] GC-MS measurements were recorded in full scan mode. Selected ion monitoring (SIM) mode was used for quantification.

[7] = target: T3, VvGT14a; assay: as above; assay type: biochemical; details: racemic substrate, prolonged incubation (24 h)
Protocol: as §3, §4

[8] = target: T3, VvGT14a; details: VvGT14a versus UGT85B1
[9] = target: T1, VvGT16
Protocol: The measurements were performed under the following conditions. […] Radioactivity was determined by LSC.

[10] = UDP-glucose fixed 512.5 μM (for UDP-glucose: geraniol fixed 1.25 mM), Tris-HCl pH 8.5, 30° C.

T3 sequence (F6H0R6 entry or part of it): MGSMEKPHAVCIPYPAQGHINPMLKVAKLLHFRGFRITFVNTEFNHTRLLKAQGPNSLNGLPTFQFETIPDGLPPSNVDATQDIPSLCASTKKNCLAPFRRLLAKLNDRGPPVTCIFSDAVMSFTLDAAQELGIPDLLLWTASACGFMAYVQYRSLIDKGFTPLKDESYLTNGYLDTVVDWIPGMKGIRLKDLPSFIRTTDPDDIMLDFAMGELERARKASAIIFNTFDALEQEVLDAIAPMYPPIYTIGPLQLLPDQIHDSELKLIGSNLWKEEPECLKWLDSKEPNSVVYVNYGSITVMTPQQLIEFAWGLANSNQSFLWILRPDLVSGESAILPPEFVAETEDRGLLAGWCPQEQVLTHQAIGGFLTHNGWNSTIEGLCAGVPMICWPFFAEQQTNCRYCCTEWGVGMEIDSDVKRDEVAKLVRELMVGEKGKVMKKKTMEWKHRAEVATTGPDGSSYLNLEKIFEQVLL
T1 sequence (F6HTJ4 entry or part of it): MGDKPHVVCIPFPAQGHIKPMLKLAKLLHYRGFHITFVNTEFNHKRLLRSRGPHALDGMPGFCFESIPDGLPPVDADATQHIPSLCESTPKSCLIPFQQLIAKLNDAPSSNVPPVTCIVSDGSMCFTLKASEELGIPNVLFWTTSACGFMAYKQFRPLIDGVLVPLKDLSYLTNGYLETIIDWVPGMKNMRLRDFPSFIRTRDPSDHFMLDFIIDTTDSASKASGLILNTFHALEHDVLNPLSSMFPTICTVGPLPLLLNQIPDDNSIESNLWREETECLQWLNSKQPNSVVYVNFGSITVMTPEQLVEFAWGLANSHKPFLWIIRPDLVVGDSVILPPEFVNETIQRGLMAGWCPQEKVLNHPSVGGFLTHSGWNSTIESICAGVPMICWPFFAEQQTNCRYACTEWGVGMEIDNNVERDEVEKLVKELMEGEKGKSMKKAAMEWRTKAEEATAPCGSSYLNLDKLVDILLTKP
T2 sequence (A0ABY9C1E0 entry or part of it): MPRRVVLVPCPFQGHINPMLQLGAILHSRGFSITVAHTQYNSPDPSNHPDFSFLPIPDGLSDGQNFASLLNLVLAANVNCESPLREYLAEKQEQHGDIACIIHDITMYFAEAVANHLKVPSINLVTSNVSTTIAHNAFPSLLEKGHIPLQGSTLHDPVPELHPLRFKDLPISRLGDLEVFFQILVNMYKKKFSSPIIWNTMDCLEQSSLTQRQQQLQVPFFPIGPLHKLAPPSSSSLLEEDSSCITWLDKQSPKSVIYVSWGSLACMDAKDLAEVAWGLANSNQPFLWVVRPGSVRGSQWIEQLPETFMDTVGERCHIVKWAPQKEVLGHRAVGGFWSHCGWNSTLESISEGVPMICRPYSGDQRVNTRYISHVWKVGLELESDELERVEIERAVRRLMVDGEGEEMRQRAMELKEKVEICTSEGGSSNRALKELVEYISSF
VvGT15b, sequence (A0ABY9C1E0 entry or part of it): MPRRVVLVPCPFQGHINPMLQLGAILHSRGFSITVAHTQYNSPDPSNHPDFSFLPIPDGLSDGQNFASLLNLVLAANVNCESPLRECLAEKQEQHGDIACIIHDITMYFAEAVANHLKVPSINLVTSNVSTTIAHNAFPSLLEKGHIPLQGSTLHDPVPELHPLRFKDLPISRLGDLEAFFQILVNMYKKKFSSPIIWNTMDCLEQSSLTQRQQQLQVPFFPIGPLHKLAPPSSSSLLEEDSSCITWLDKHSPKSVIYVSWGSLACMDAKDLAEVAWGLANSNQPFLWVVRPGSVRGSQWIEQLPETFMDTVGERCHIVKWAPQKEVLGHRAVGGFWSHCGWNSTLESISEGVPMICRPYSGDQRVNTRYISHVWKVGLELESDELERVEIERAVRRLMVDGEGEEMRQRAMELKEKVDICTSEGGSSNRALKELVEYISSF

| SMILES | conversion as substrate (in words) [1] | conversion as substrate (in words) [2] | conversion as substrate (in words) [3] | conversion as substrate (in words) [4] | conversion as substrate (in words) [5] | enantiomeric preference, aglycone liberated from the formed glucoside [6] | enantiomeric preference, aglycone liberated from the formed glucoside [7] | kcat/KM of VvGT14a higher than the value for UGT85B1 from Sorghum bicolor [8] | Km [9, 10] | kcat [9, 10] | transformation of R- and S-citronellol (in words) ([9]; radiochemical assays) |
| --- | --- | --- | --- | --- | --- | --- | --- | --- | --- | --- | --- |
| CC(C)=CCCC(C)CCO (racemic) [citronellol (rac), (R,S)-3,7-dimethyl-6-octen-1-ol] | transformed | glucosylated primarily | glucosylated primarily | preferred | glucosylated primarily | no enantio-discrimination | no enantio-discrimination | 4 fold | 108 ± 2.5 µM | 0.008 s⁻¹ | same efficiency |
| C=CC(C)(O)CCC=C(C)C (racemic) [linalool (rac), (R,S)-3,7-dimethyl-1,6-octadien-3-ol] | – | – | – | catalytic activity | – | – | slight enrichment of the R-enantiomer | – | – | – | – |
